The record followed here is patent publication US7314877B2, “Benzofuran derivative” (Kowa Co., Ltd., priority 2003, dated 2008).

The test system of one data set is TNF-α production. Briefly: TNF-α production inhibitory effect in LPS-stimulated RAW264.7 cells (ELISA). The data set is classed as cell-based. As to conditions: Mus musculus, 8 h, lipopolysaccharide 1 μg/mL, eight hours incubation, TNF-α in culture supernatant by ELISA. On the procedure: Method for Determining TNF-α Production Inhibitory Effect
RAW264.7 cells were suspended in a DMEM medium supplemented with 10% fetal bovine serum (FBS), and the suspension was seeded in wells of a 24-well plate (5×10^5/mL/well). Each test compound (0 to 10 μM) was added to the wells, and the mixture was incubated in a CO2 incubator for 30 minutes. Subsequently, lipopolysaccharide was added to the mixture in an amount of 1 μg/mL, and incubation was further performed in a CO2 incubator for eight hours. Eight hours after the start of incubation, the culture supernatant was collected, and the amount of TNF-α contained in the culture broth was determined through ELISA. IC50 value was determined through comparison with the amount of produced TNF-α in the drug-free (blank) case.
(ELISA stands for enzyme-linked immunosorbent assay.)

Data set [1] is described as follows: Test on absorption after oral administration in mouse. The data set is classed as in vivo. As to conditions: male ICR mouse, 10 mg/kg oral, suspension in 0.5% HPMC, plasma at 0.25, 0.5, 1 and 4 hours, HPLC; FIG. 1. The method, then:
Test on Absorption after Oral Administration in Mouse Each of the test compounds (Examples 7, 10, and 13) was suspended in 0.5% HPMC in a mortar. The suspension was orally administered to each male ICR mouse (6 weeks old) in an amount of 10 mg/kg. At each time of 0.25, 0.5, 1, and 4 hours after oral administration, a blood sample was collected and centrifuged, whereby a plasma sample was prepared. The level of the test compound in the plasma sample was determined through HPLC.

What is called melting point is the temperature of the solid-liquid transition. Usually IC50 stands for the concentration that gives 50% inhibition. Higher therefore signals lower potency.

The molecule `CN1CCN(Cc2cc(-c3ccc4c(c3)CCO4)nn(CC3CC3)c2=O)CC1` [Example 1, 2-cyclopropylmethyl-6-(2,3-dihydro-1-benzofuran-5-yl)-4-(4-methyl-1-piperazinyl)methyl-2H-pyridazin-3-one] registered a melting point of 128 to 130 °C. In the data set with TNF-α production, this molecule gave an IC50 of 8.9 µM.

`CN(C)Cc1cc(-c2ccc3c(c2)CCO3)nn(CC2CC2)c1=O` [Example 3, 2-cyclopropylmethyl-6-(2,3-dihydro-1-benzofuran-5-yl)-4-dimethylaminomethyl-2H-pyridazin-3-one] returned a melting point of 109 to 110 °C.

On to `CN1CCN(Cc2cc(-c3ccc4c(c3)CCO4)nn(Cc3ccc(F)cc3)c2=O)CC1` [Example 6, 2-(4-fluorobenzyl)-6-(2,3-dihydro-1-benzofuran-5-yl)-4-(4-methyl-1-piperazinyl)methyl-2H-pyridazin-3-one], for which the melting point was 179 to 180 °C. In the data set on TNF-α production, this molecule displayed an IC50 of 3.1 µM.

With `CN1CCN(Cc2cc(-c3ccc4c(c3)CCO4)nn(Cc3ccc(F)cc3)c2=O)CC1.Cl.Cl` [Example 7, 2-(4-fluorobenzyl)-6-(2,3-dihydro-1-benzofuran-5-yl)-4-(4-methyl-1-piperazinyl)methyl-2H-pyridazin-3-one dihydrochloride], the melting point was 201 to 204 °C (dec.). Moreover, the “absorption after oral administration (level of test compound in plasma)” value (“absorption after oral administration” for short) in data set [1] is reported as “good absorbability”.

Take `CN1CCN(Cc2cc(-c3ccc4c(c3)CCO4)nn(Cc3ccc(Cl)cc3)c2=O)CC1` [Example 8, 2-(4-chlorobenzyl)-6-(2,3-dihydro-1-benzofuran-5-yl)-4-(4-methyl-1-piperazinyl)methyl-2H-pyridazin-3-one]: the melting point is 149 to 150 °C.

`CN1CCN(Cc2cc(-c3ccc4c(c3)CCO4)nn(CC=Cc3ccc(Cl)cc3)c2=O)CC1` [Example 9, 2-(4-chlorocinnamyl)-6-(2,3-dihydro-1-benzofuran-5-yl)-4-(4-methyl-1-piperazinyl)methyl-2H-pyridazin-3-one] came in with a melting point of 112 to 113 °C. Also, the IC50 with TNF-α production was determined as 4.2 µM.

Take `CN1CCN(Cc2cc(-c3ccc4c(c3)CCO4)nn(CC=Cc3ccc(Cl)cc3)c2=O)CC1.Cl.Cl` [Example 10, 2-(4-chlorocinnamyl)-6-(2,3-dihydro-1-benzofuran-5-yl)-4-(4-methyl-1-piperazinyl)methyl-2H-pyridazin-3-one dihydrochloride]: the “absorption after oral administration” value in data set [1] is given as “good absorbability”.

For the molecule `CN1CCN(Cc2cc(-c3ccc4occc4c3)nn(Cc3ccc(F)cc3)c2=O)CC1` [Example 11, 6-(1-benzofuran-5-yl)-2-(4-fluorobenzyl)-4-(4-methyl-1-piperazinyl)methyl-2H-pyridazin-3-one], the melting point lay within 128 to 130 °C.

In turn, `CN1CCN(Cc2cc(-c3ccc4c(c3)CCO4)nn(CCCc3ccccc3Cl)c2=O)CC1` [Example 12, 2-[3-(2-chlorophenyl)propyl]-6-(2,3-dihydro-1-benzofuran-5-yl)-4-(4-methyl-1-piperazinyl)methyl-2H-pyridazin-3-one] showed an IC50 with TNF-α production of 2.2 µM.

Turning to `CN1CCN(Cc2cc(-c3ccc4c(c3)CCO4)nn(CCCc3ccccc3Cl)c2=O)CC1.Cl.Cl` [Example 13, 2-[3-(2-chlorophenyl)propyl]-6-(2,3-dihydro-1-benzofuran-5-yl)-4-(4-methyl-1-piperazinyl)methyl-2H-pyridazin-3-one dihydrochloride], the “absorption after oral administration” value in data set [1] is recorded as “good absorbability”.

Turning to `CN1CCN(Cc2cc(-c3ccc4c(c3)CCO4)nn(Cc3ccccc3Cl)c2=O)CC1` [Example 17, 2-(2-chlorobenzyl)-6-(2,3-dihydro-1-benzofuran-5-yl)-4-(4-methyl-1-piperazinyl)methyl-2H-pyridazin-3-one], the melting point is 141.4 to 142.1 °C. In the data set with TNF-α production, this molecule registered an IC50 of 7.5 µM.

In turn, `NCc1cc(-c2ccc3c(c2)CCO3)nn(Cc2ccccc2Cl)c1=O` [Example 18, 4-aminomethyl-2-(2-chlorobenzyl)-6-(2,3-dihydro-1-benzofuran-5-yl)-2H-pyridazin-3-one] showed a melting point of 120.1 to 122.8 °C. This molecule also registered an IC50 with TNF-α production of 7.5 µM.
